The values that follow come from patent US11378570B2, “Cytotoxicity test method for medical devices” (Alcon Inc., priority 2017, dated 2022).

For the data set, the system named is Mouse lymphoma TK cells. The experiment in a line: TK suspension cell assay, treatment with dilutions of BAK and ZDBC. The format is cell-based. The following applies: 72±2 hours; for dose dependence of the decrease in cell growth: serial dilutions, 5% or 10% FBS. The protocol:
For each test material, data were collected and the mean and SD were calculated using Excel. The IC50 was calculated using SigmaPlot. Determination of cytotoxicity and test acceptance criteria followed those described in JMHLW and ISO 10993-5: The relative colony-forming rate/relative growth rate of positive control (reference material B) should be equal or less than 10%, and negative control (Wako disk) should be equal or greater than 80%.
Relative cell growth rate (%)=[100×(Test cell concentration at time 72 hours−mean of blank cell concentration at time 0)÷(mean of blank cell concentration at time 72 hours−mean of blank cell concentration at time 0)]. The results are expressed as the mean±standard deviation (SD) from three independent studies and each study has six replicates for each lens.
Phosphate buffer (Cat. #SH30028.02, HyClone, Logan, Utah) was used for dilutions of BAK (1.25, 2.5, 5, 10, 25, and 50 parts per million) (Cat. #B1068, Spectrum Chemical, New Brunswick, N.J.). A total of 900 μL of 2.2×10^4 cells/mL TK cells in assay medium (RPMIFBS10 or RPMIFBS05) were seeded in a 24-well plate and then treated with different dilutions of BAK (100 μL) to achieve final concentrations of 0.125, 0.25, 0.5, 1.0, 2.5, and 5 ppm. Phosphate buffer (100 μL)-treated cells served as a blank control, reference material B (diameter (ϕ): 14 mm) as a positive control, and Wako tissue culture plastic disk served a negative control. After 72±2 hours incubation, 600 μL cells were mixed and transferred into the counter vial. The relative cell growth rate was determined and calculated as described above. The results are expressed as the mean±SD based on three replicates.
DMSO was used to dissolve ZDBC powder (Cat. #Z1031, Spectrum Chemical, New Brunswick, N.J.) to make […], 0.1, 0.2, 0.4, 0.8, and 2 mg/mL dilutions. Next, 995 μL of 2.0×10^4 cells/mL TK cells in assay medium (either RPMIFBS10 or RPMIFBS05) were seeded in a 24-well plate and treated with 5 μL of different ZDBC dilutions to achieve final concentrations of 0.25, 0.5, 1, 2, 4, and 10 μg/mL. DMSO (5 μL)-treated cells served as a blank control, reference material B (diameter (ϕ): 14 mm) as a positive control, and Wako tissue culture plastic disk served a negative control. After 72±2 hours incubation, 600 μL cells were mixed and transferred into the counter vial. The relative cell growth rate was determined and calculated as described above. The results are expressed as the mean±SD based on three replicates.

For benzalkonium chloride [BAK], the “dose dependence of the decrease in cell growth” value is on record as “dose-dependent decrease in cell growth”. Besides, the “IC50 (relative cell growth rate)” value (5% FBS) worked out at 0.55 ppm. Also, the “IC50 (relative cell growth rate)” value (10% FBS) stood at 0.59 ppm. Further, the cytotoxicity result (at 0.25 and 0.125 ppm) is given as “not cytotoxic”. Also, the “cell growth inhibition as compared to the blank control” value (at 5, 2.5, 1, and 0.5 ppm) was “significant cell growth inhibition”.

Consider zinc dibutyldithiocarbamate [ZDBC], for which the “dose dependence of the decrease in cell growth” value is “dose-dependent decrease in cell growth”. Also, where the note is “5% FBS medium”, the “IC50 (relative cell growth rate)” value is 2.0 µg/mL. For the same substance, under “10% FBS medium”, the “IC50 (relative cell growth rate)” value is 4.5 µg/mL.
